Source: ChEMBL document CHEMBL3885881, “DrugMatrix”

Organism: Rattus norvegicus
Format: toxicity, organism-based, Sprague-Dawley
Conditions: in vivo, po, route oral GAVAGE, vehicle 100 % SALINE; for ABSOLUTE EOSINOPHIL / ABSOLUTE LYMPHOCYTE / ABSOLUTE MONOCYTE / ABSOLUTE SEGMENTED NEUTROPHIL / BASOPHIL / EOSINOPHIL / ERYTHROCYTE COUNT / HEMATOCRIT / HEMOGLOBIN / LEUKOCYTE COUNT / LYMPHOCYTE / MEAN CORPUSCULAR HEMOGLOBIN / MEAN CORPUSCULAR HEMOGLOBIN CONCENTRATION / MEAN CORPUSCULAR VOLUME / MONOCYTE / NEUTROPHIL / NUCLEATED RED BLOOD CELLS / PLATELET COUNT: tissue Blood; for ALANINE AMINOTRANSFERASE / ALBUMIN / ALKALINE PHOSPHATASE / ASPARTATE AMINOTRANSFERASE / BLOOD UREA NITROGEN / CARBON DIOXIDE / CHLORIDE / CHOLESTEROL / CREATINE PHOSPHOKINASE / CREATININE / GLUCOSE / LACTATE DEHYDROGENASE / LIPASE / PHOSPHORUS / POTASSIUM / SODIUM / TOTAL BILIRUBIN / TOTAL PROTEIN / URIC ACID: tissue Plasma
[1] = 0 mg/kg, 6 h, dose level Control, time 0.25 day
[2] = 0 mg/kg, 24 h, dose level Control, time 1 day
[3] = 3000 mg/kg, 6 h, dose level Low, time 0.25 day

Description: DrugMatrix - Regimen: Single

CCO [ALCOHOL]
ABSOLUTE EOSINOPHIL [1]: 24 CELLS/uL | ABSOLUTE LYMPHOCYTE [1]: 11958.17 CELLS/uL | ABSOLUTE MONOCYTE [1]: 398.83 CELLS/uL | ABSOLUTE SEGMENTED NEUTROPHIL [1]: 1252.33 CELLS/uL | BASOPHIL [1]: 0% | EOSINOPHIL [1]: 0.17% | ERYTHROCYTE COUNT [1]: 5.37 x10E6/uL | HEMATOCRIT [1]: 35.6% | HEMOGLOBIN [1]: 13.05 G/DL | LEUKOCYTE COUNT [1]: 13.63 x10E3/uL | LYMPHOCYTE [1]: 87.67% | MEAN CORPUSCULAR HEMOGLOBIN [1]: 24.28 pg | MEAN CORPUSCULAR HEMOGLOBIN CONCENTRATION [1]: 36.67 G/DL | MEAN CORPUSCULAR VOLUME [1]: 66.28 fL | MONOCYTE [1]: 2.83% | NEUTROPHIL [1]: 9.33% | NUCLEATED RED BLOOD CELLS [1]: 0 /100WBC | PLATELET COUNT [1]: 947.83 x10E3/uL | ALANINE AMINOTRANSFERASE [1]: 51 u/L | ALBUMIN [1]: 4.02 G/DL | ALKALINE PHOSPHATASE [1]: 312.33 u/L | ASPARTATE AMINOTRANSFERASE [1]: 98.17 u/L | BLOOD UREA NITROGEN [1]: 9.5 mg/dL | CARBON DIOXIDE [1]: 18.83 mmol/L | CHLORIDE [1]: 103.5 MEQ/L | CHOLESTEROL [1]: 69.5 mg/dL | CREATINE PHOSPHOKINASE [1]: 580.17 u/L | CREATININE [1]: 0.53 mg/dL | GLUCOSE [1]: 175.67 mg/dL | LACTATE DEHYDROGENASE [1]: 295.5 u/L | LIPASE [1]: 8.17 u/L | PHOSPHORUS [1]: 14.12 mg/dL | POTASSIUM [1]: 5.77 MEQ/L | SODIUM [1]: 144.13 MEQ/L | TOTAL BILIRUBIN [1]: 0.12 mg/dL | TOTAL PROTEIN [1]: 4.87 G/DL | URIC ACID [1]: 2.25 mg/dL | ABSOLUTE EOSINOPHIL [2]: 0 CELLS/uL | ABSOLUTE LYMPHOCYTE [2]: 12232.83 CELLS/uL | ABSOLUTE MONOCYTE [2]: 20.33 CELLS/uL | ABSOLUTE SEGMENTED NEUTROPHIL [2]: 780.17 CELLS/uL | BASOPHIL [2]: 0% | EOSINOPHIL [2]: 0% | ERYTHROCYTE COUNT [2]: 5.18 x10E6/uL | HEMATOCRIT [2]: 33.48% | HEMOGLOBIN [2]: 13.22 G/DL | LEUKOCYTE COUNT [2]: 13.03 x10E3/uL | LYMPHOCYTE [2]: 93.33% | MEAN CORPUSCULAR HEMOGLOBIN [2]: 25.57 pg | MEAN CORPUSCULAR HEMOGLOBIN CONCENTRATION [2]: 39.52 G/DL | MEAN CORPUSCULAR VOLUME [2]: 64.65 fL | MONOCYTE [2]: 0.17% | NEUTROPHIL [2]: 6.5% | NUCLEATED RED BLOOD CELLS [2]: 0 /100WBC | PLATELET COUNT [2]: 931.5 x10E3/uL | ALANINE AMINOTRANSFERASE [2]: 60.83 u/L | ALBUMIN [2]: 4.18 G/DL | ALKALINE PHOSPHATASE [2]: 283.33 u/L | ASPARTATE AMINOTRANSFERASE [2]: 80.5 u/L | BLOOD UREA NITROGEN [2]: 11.83 mg/dL | CARBON DIOXIDE [2]: 35.33 mmol/L | CHLORIDE [2]: 98.5 MEQ/L | CHOLESTEROL [2]: 80 mg/dL | CREATINE PHOSPHOKINASE [2]: 181.83 u/L | CREATININE [2]: 0.2 mg/dL | GLUCOSE [2]: 142.67 mg/dL | LACTATE DEHYDROGENASE [2]: 65.5 u/L | LIPASE [2]: 9.83 u/L | PHOSPHORUS [2]: 9.82 mg/dL | POTASSIUM [2]: 5.69 MEQ/L | SODIUM [2]: 143.35 MEQ/L | TOTAL BILIRUBIN [2]: 0.15 mg/dL | TOTAL PROTEIN [2]: 6.2 G/DL | URIC ACID [2]: 0.42 mg/dL | ABSOLUTE EOSINOPHIL [3]: 17.33 CELLS/uL | ABSOLUTE LYMPHOCYTE [3]: 12297.17 CELLS/uL | ABSOLUTE MONOCYTE [3]: 395.33 CELLS/uL | ABSOLUTE SEGMENTED NEUTROPHIL [3]: 1356.83 CELLS/uL | BASOPHIL [3]: 0% | EOSINOPHIL [3]: 0.17% | ERYTHROCYTE COUNT [3]: 5.49 x10E6/uL | HEMATOCRIT [3]: 36.33% | HEMOGLOBIN [3]: 13.27 G/DL | LEUKOCYTE COUNT [3]: 14.07 x10E3/uL | LYMPHOCYTE [3]: 87% | MEAN CORPUSCULAR HEMOGLOBIN [3]: 24.23 pg | MEAN CORPUSCULAR HEMOGLOBIN CONCENTRATION [3]: 36.55 G/DL | MEAN CORPUSCULAR VOLUME [3]: 66.38 fL | MONOCYTE [3]: 2.67% | NEUTROPHIL [3]: 10.17% | NUCLEATED RED BLOOD CELLS [3]: 0 /100WBC | PLATELET COUNT [3]: 1109.83 x10E3/uL | ALANINE AMINOTRANSFERASE [3]: 45.5 u/L | ALBUMIN [3]: 4.27 G/DL | ALKALINE PHOSPHATASE [3]: 279.17 u/L | ASPARTATE AMINOTRANSFERASE [3]: 96.17 u/L | BLOOD UREA NITROGEN [3]: 11 mg/dL | CARBON DIOXIDE [3]: 19.5 mmol/L | CHLORIDE [3]: 105.33 MEQ/L | CHOLESTEROL [3]: 63.33 mg/dL | CREATINE PHOSPHOKINASE [3]: 339.67 u/L | CREATININE [3]: 0.17 mg/dL | GLUCOSE [3]: 173 mg/dL | LACTATE DEHYDROGENASE [3]: 354.67 u/L | LIPASE [3]: 10 u/L | PHOSPHORUS [3]: 15.83 mg/dL | POTASSIUM [3]: 6.29 MEQ/L | SODIUM [3]: 146.3 MEQ/L | TOTAL BILIRUBIN [3]: 0.0667 mg/dL | TOTAL PROTEIN [3]: 5.62 G/DL | URIC ACID [3]: 2.12 mg/dL
